In paper PMC11992225, “Antibacterial compounds against non-growing and intracellular bacteria” (npj Antimicrobials and Resistance, 2025):
Values joined by “and” are separate entries in the source; they are usually repeats but may differ in a detail not shown here. Identical values can stand only once.

Columns and labels:
non-growing UPEC CFT073 = assay: Dose-dependent killing analysis (CFU spot-plating) of stationary-phase UPEC; format: cell-based, Escherichia coli
In short: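 Non-growing (stationary-phase) UPEC CFT073 treated with compounds in 96-well format at 200 μl, then 10-fold serially diluted in PBS and 10 μl spots plated on LB agar. Plates incubated overnight at 37 °C; colonies counted at lowest resolvable dilution to give CFU. Three biological replicates.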

[1] = tested on: intracellular S. flexneri 5a M90T in TC7 cells; assay: microbe, parasite or virus in culture; format: cell-based, Shigella flexneri; details: TC7 cells
[2] = tested on: non-growing S. aureus DSM2569; assay: Dose-dependent killing analysis (CFU spot-plating) of stationary-phase S. aureus; format: cell-based, Staphylococcus aureus; details: for Δlog10(CFU/ml): S. aureus, average killing vs before treatment (9,097)
In short: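 Stationary-phase S. aureus DSM2569 was grown and treated for 24 h in 1:4 CA-MHB at pH 7.4. Treated samples were serially diluted 10-fold in PBS and spot-plated on LB agar, which was incubated overnight at 37 °C. Survivors were counted as CFU over three biological replicates.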

Bleomycin
Δlog10(CFU/ml) (non-growing UPEC CFT073; E. coli in 1:4 CA-MHB (pH 7.4), 0.25 μM, average killing vs before treatment (8.977)): 0.270 log10(CFU/ml) | Δlog10(CFU/ml) (non-growing UPEC CFT073; E. coli in 1:4 CA-MHB (pH 7.4), 0.5 μM, average killing vs before treatment (8.977)): 0.232 log10(CFU/ml) | Δlog10(CFU/ml) (non-growing UPEC CFT073; E. coli in 1:4 CA-MHB (pH 7.4), 1 μM, average killing vs before treatment (8.977)): 0.145 log10(CFU/ml) | Δlog10(CFU/ml) (non-growing UPEC CFT073; E. coli in 1:4 CA-MHB (pH 7.4), 2.5 μM, average killing vs before treatment (8.977)): 0.654 log10(CFU/ml) | Δlog10(CFU/ml) (non-growing UPEC CFT073; E. coli in 1:4 CA-MHB (pH 7.4), 5 μM, average killing vs before treatment (8.977)): 1.149 log10(CFU/ml) | Δlog10(CFU/ml) (non-growing UPEC CFT073; E. coli in 1:4 CA-MHB (pH 7.4), 10 μM, average killing vs before treatment (8.977)): 1.686 log10(CFU/ml) | Δlog10(CFU/ml) (non-growing UPEC CFT073; E. coli in LPM (pH 5.5), 0.25 μM, average killing vs before treatment (7.350)): 0.339 log10(CFU/ml) | Δlog10(CFU/ml) (non-growing UPEC CFT073; E. coli in LPM (pH 5.5), 0.5 μM, average killing vs before treatment (7.350)): 0.181 log10(CFU/ml) | Δlog10(CFU/ml) (non-growing UPEC CFT073; E. coli in LPM (pH 5.5), 1 μM, average killing vs before treatment (7.350)): 0.347 log10(CFU/ml) | Δlog10(CFU/ml) (non-growing UPEC CFT073; E. coli in LPM (pH 5.5), 2.5 μM, average killing vs before treatment (7.350)): 0.457 log10(CFU/ml) | Δlog10(CFU/ml) (non-growing UPEC CFT073; E. coli in LPM (pH 5.5), 5 μM, average killing vs before treatment (7.350)): 1.004 log10(CFU/ml) | Δlog10(CFU/ml) (non-growing UPEC CFT073; E. coli in LPM (pH 5.5), 10 μM, average killing vs before treatment (7.350)): 1.335 log10(CFU/ml) | Log10(CFU/ml), Replicate #1 (non-growing UPEC CFT073; pH 5.5): 5.301 Log10(CFU/ml) and 5.477 Log10(CFU/ml) and 6.204 Log10(CFU/ml) and 6.279 Log10(CFU/ml) and 6.491 Log10(CFU/ml) and 6.477 Log10(CFU/ml) | Log10(CFU/ml), Replicate #2 (non-growing UPEC CFT073; pH 5.5): 5.568 Log10(CFU/ml) and 6.114 Log10(CFU/ml) and 6.778 Log10(CFU/ml) (2×) and 6.903 Log10(CFU/ml) and 6.477 Log10(CFU/ml) | Log10(CFU/ml), Replicate #3 (non-growing UPEC CFT073; pH 5.5): 7.176 Log10(CFU/ml) and 7.447 Log10(CFU/ml) and 7.699 Log10(CFU/ml) and 7.954 Log10(CFU/ml) and 8.114 Log10(CFU/ml) and 8.079 Log10(CFU/ml) | Log10(CFU/ml), Replicate #1 (non-growing UPEC CFT073; pH 7.4): 7.903 Log10(CFU/ml) and 8.362 Log10(CFU/ml) and 8.903 Log10(CFU/ml) and 9.462 Log10(CFU/ml) and 9.362 Log10(CFU/ml) and 9.114 Log10(CFU/ml) | Log10(CFU/ml), Replicate #2 (non-growing UPEC CFT073; pH 7.4): 6.556 Log10(CFU/ml) and 7.279 Log10(CFU/ml) and 7.954 Log10(CFU/ml) and 8.778 Log10(CFU/ml) and 8.699 Log10(CFU/ml) and 8.301 Log10(CFU/ml) | Log10(CFU/ml), Replicate #3 (non-growing UPEC CFT073; pH 7.4): 7.415 Log10(CFU/ml) and 7.845 Log10(CFU/ml) and 8.114 Log10(CFU/ml) and 8.255 Log10(CFU/ml) and 8.176 Log10(CFU/ml) | inhibition of intracellular Shigella [1]: inactive | Log10(CFU/ml), Replicate #1 [2]: 6.114 Log10(CFU/ml) and 7.898 Log10(CFU/ml) and 8.934 Log10(CFU/ml) and 8.881 Log10(CFU/ml) | Log10(CFU/ml), Replicate #2 [2]: 6.845 Log10(CFU/ml) and 8.447 Log10(CFU/ml) and 8.959 Log10(CFU/ml) and 9.255 Log10(CFU/ml) | Log10(CFU/ml), Replicate #3 [2]: 6.863 Log10(CFU/ml) and 8.431 Log10(CFU/ml) and 8.778 Log10(CFU/ml) and 8.944 Log10(CFU/ml) | Δlog10(CFU/ml) ([2]; 0.1 μM): 0.070 log10(CFU/ml) | Δlog10(CFU/ml) ([2]; 0.5 μM): 0.206 log10(CFU/ml) | Δlog10(CFU/ml) ([2]; 2.5 μM): 0.838 log10(CFU/ml) | Δlog10(CFU/ml) ([2]; 10 μM): 2.490 log10(CFU/ml)
